Values belong to the compound of their own block, whether it stands above or below them.
Tests used:
[1] = target: T1, Autotaxin (Homo sapiens, UniProt Q13822); assay: Inhibition of human ATX using LPC as substrate measured after 2 hrs by fluorescence based choline release assay
[2] = target: T1, Autotaxin; assay: Inhibition of recombinant human ATX expressed in Sf9 cells using FS-3 as substrate measured after 1 hrs by fluorescence based assay
[3] = target: T1, Autotaxin; assay: Inhibition of human ATX using FS-3 as substrate measured after 1 hrs by fluorescence based […] assay
[4] = target: T1, Autotaxin; assay: Inhibition of ATX in human blood; assay type: tissue-based
[5] = target: Autotaxin (Mus musculus, UniProt Q9R1E6); assay: Inhibition of ATX in mouse plasma; assay type: cell-free
[6] = target: T1, Autotaxin; assay: Inhibition of ATX (unknown origin) using […] as substrate
[7] = target: T1, Autotaxin; assay: Inhibition of human ATX using LPC as substrate assessed as choline release measured after 1.5 hrs by fluorescence based assay
[8] = Inhibition of hen egg white ATX using LPC as substrate preincubated for 30 mins followed by substrate addition measured after 90 mins by choline release assay; design: species or system Gallus gallus
[9] = target: T1, Autotaxin; assay: Inhibition of human ATX using LPC as substrate preincubated for 30 mins followed by substrate addition measured after 90 mins by choline release assay
[10] = target: T1, Autotaxin; assay: Inhibition of ATX (unknown origin) using FS-3 as substrate

IC50 [1]: 43.6 nM
Structure (SMILES): O=C(Nc1cccc(F)c1)c1cc(S(=O)(=O)N2CCOCC2)c(Cl)cc1Cl

IC50 [7]: 2 nM
Structure (SMILES): Cc1c(Sc2cccc(C(=O)O)c2F)c2ccc(Cl)c(F)c2n1C(=O)N1CC2(CC2)c2ccccc21

IC50 [8]: 87 nM | IC50 [9]: 134 nM
Structure (SMILES): N#CC1=C(N)Oc2n[nH]c(-c3ccc(OCc4ccc(F)cc4)cc3)c2[C@H]1c1ccc(Cl)c(Cl)c1

Continued, compound first:

Structure (SMILES): CS(=O)(=O)N(c1cc(C(=O)Nc2cc(F)c(Cl)c(F)c2)c(Cl)cc1Cl)C1CCOCC1
IC50 [2]: 218 nM

Structure (SMILES): O=C(Nc1ccc(Br)cc1)c1cc(S(=O)(=O)N2CCCCC2)c(Cl)cc1Cl
IC50 [1]: 23 nM | IC50 [3]: 21 nM

Structure (SMILES): CCCn1cc(-n2c(C)c(Sc3cccc(C(=O)O)c3F)c3ccc(Cl)c(F)c32)cn1
IC50 [4]: 8.9 nM | IC50 [5]: 22 nM | IC50 [6]: 1.1 nM

Structure (SMILES): CS(=O)(=O)N(c1cc(C(=O)Nc2cc(F)c(F)c(F)c2)c(Cl)cc1Cl)C1CCOCC1
IC50 [2]: 219 nM

Structure (SMILES): CCc1nc2c(C)cc(-c3ccc(C(=O)N4CCN(CCO)CC4)cc3)cn2c1NC(=O)OCc1ccc2c(c1)OCO2
IC50 [10]: 2.7 nM
